According to patent US20230114811A1, “GLYCOSYLTRANSFERASES, POLYNUCLEOTIDES ENCODING THESE AND METHODS OF USE” (THE NEW ZEALAND INSTITUTE FOR PLANT AND FOOD RESEARCH …, priority 2020, published 2023):
Values joined by “and” are separate entries in the source; they are usually repeats but may differ in a detail not shown here. Equal entries are not always repeated.

Legend:
[1] = test system: recombinant PGT2 cloned from M. toringoides; test: Substrate specificity of recombinant PGT2, UDP-glucoside as sugar donor, products determined by LC-MS/MS; assay type: biochemical; details: amount of product formed relative to conversion of phloretin to trilobatin set at 100%
Description: The products of each reaction were determined by LC-MS/MS. […] Quercetin-3-O-glucoside was detected as a reaction product using quercetin (FIG. 8A-F) with a lower conversion rate of 9.1% (Table 7).

[2] = Jia et al., 2008; cited from earlier work
[3] = Isosweetness comparison test between trilobatin and sucrose (sensory panel); assay type: in vivo; details: n=5 participants
Description: Five participants with high acuity for trilobatin in the triangle test were selected to perform the isosweetness comparison test between trilobatin and sucrose. Each participant was given one trilobatin solution and eight sucrose solutions at different concentrations to taste. Solutions were prepared as described above for the apple leaf teas. The trilobatin solutions were presented at 12.3, 18.5, 27.8 and 41.7 mg per 100 ml, while the sucrose solutions were presented at 296.3, 444.4, 592.6, 666.7, 888.9, 1000, 1333.3 and 2000 mg per 100 ml.

[4] = substrate: O=C(CCc1ccc(O)cc1)c1c(O)cc(O)cc1O; test: Km/Vmax determination for recombinant PGT2 (glycosyltransferase activity assay, HPLC); assay type: biochemical, M. toringoides; details: other: phloretin 4-500 μM, fixed UDP-glucose 500 μM, pH 9.0, 0.1 M Tris-HCl, 40° C., 10 min

| Molecule | Conversion (%) [1] | other results |
| --- | --- | --- |
| O=C1C[C@@H](c2ccc(O)cc2)Oc2cc(O)cc(O)c21 [naringenin] | 0% |  |
| O=C(CCc1ccc(O)cc1)c1c(O)cc(O)cc1O [phloretin, 3-(4-hydroxyphenyl)-1-(2,4,6-trihydroxyphenyl)propan-1-one] | 100.0 ± 6.1% |  |
| O=C(CCc1ccc(O)cc1)c1c(O)cc(O[C@@H]2O[C@H](CO)[C@@H](O)[C@H](O)[C@H]2O)cc1O [trilobatin, 1-[2,6-dihydroxy-4-[(2S,3R,4S,5S,6R)-3,4,5-trihydroxy-6-(hydroxymethyl)oxan-2-yl]oxyphenyl]-3-(4-hydroxyphenyl)propan-1-one] | 0% | sweeter than sucrose (reported) [2]: ~100 ×; sweetness detection threshold [2]: 3 to 200 mg/L; Isosweetness (trilobatin vs sucrose) ([3]; R^2=0.98, mean±SE): 35.2+1.66; sweeter than sucrose ([3]; trilobatin purified from leaves of crabapple hybrid ‘Adams’): ~35 fold |
| O=C(O)/C=C/c1ccc(O)cc1 [4-coumaric acid] | 0% |  |
| O=c1c(O)c(-c2ccc(O)c(O)c2)oc2cc(O)cc(O)c12 [quercetin] | 9.1% and 9.1 ± 0.1% |  |
| O=C(CCc1ccc(O)c(O)c1)c1c(O)cc(O[C@@H]2O[C@H](CO)[C@@H](O)[C@H](O)[C@H]2O)cc1O [sieboldin, 3-hydroxyphloretin-4′-O-glucoside] | 0% |  |
| O=C(O)/C=C/c1ccc(O)c(O)c1 [caffeic acid] | 0% |  |
| COc1ccc([C@@H]2CC(=O)c3c(O)cc(O[C@@H]4O[C@H](CO)[C@@H](O)[C@H](O)[C@H]4O[C@@H]4O[C@@H](C)[C@H](O)[C@@H](O)[C@H]4O)cc3O2)cc1O [neohesperidin] | 0% |  |
| O=C(/C=C/c1ccc(O)c(O)c1)O[C@@H]1C[C@](O)(C(=O)O)C[C@@H](O)[C@H]1O [chlorogenic acid] | 0% |  |
| O=C(CCc1ccc(O)c(O)c1)c1c(O)cc(O)cc1O [3-OH phloretin] | 58.7 ± 2.3% |  |
| PGT2 (Malus toringoides) (protein) MEATAIVLYPSPLIGHLVSMVELGKLILTRHPSLCIHILITTPPYRANDTDSYITSVSAANPSLIFHHLPTISLPPSLASSRNHEILAFELAPLYNPNVHQALVSISHNFSIKAFVMDFFCYVGLPVATELNIPSYFFFTSSANTLASSLYLPTLHNIIDKSLKDLNILLNIPGVPPMPSSDMPQPTLDRNQKVYEHVQGSSKQFPKSAGIIVNTFESLEPRALRAIWDGLCLPENVPTPPVYPIGPLIVSHGGGGRGAECLKWLDSQPSGSVVFLCFGSLGLFSKEQLKEIAIGLENSGHRFLWVVRNPPAQNQIGLDIKESDPELKSLLPDGFLDRTKDRGLVVKSWAPQAAVLNHNSVGGFVSHCGWNSVLESVCAGVPIVAWPLYAEQRFNRVVLVKEIKIAMPMNESEDGFVRAAEVEKRITELMDSEEGASIRKRTKDLQNNAHAALGETGSSGVALTKLLEFWGKTC |  | Km [4]: 18.0 ± 6.7 µM; Vmax [4]: 1.85 ± 0.17 nmol/min |
